Experimental findings from patent publication US11028090B2 (Dong Wha Pharm. Co., Ltd., priority 2017, dated 2021) are described below.

Like-named read-outs stand apart in the source and are kept apart here.

For assay [1], the target named is BRD4 (BD1+BD2) bromodomain (Homo sapiens (Human), UniProt O60885). The assay is described as follows: BRD4 binding inhibition (AlphaScreen, GST-BRD4 vs tetraacetylated histone H4 peptide). In a few lines:
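GST-BRD4 (BD1+BD2) and biotinylated tetraacetyl-histone H4 peptide, each at 100 nM in HEPES pH 7.4 buffer with BSA and DTT, were combined with compound. Glutathione acceptor and streptavidin donor beads were added, then incubated 30 min at room temperature in the dark. Read-out was AlphaScreen signal.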
For orientation: Alpha assays give light when donor and acceptor beads are brought close together.

The test system of assay [2] is acute myelogenous leukemia cells (MV-4-11 cells). Nature of the assay: Cytotoxicity to acute myelogenous leukemia cells (MV-4-11 cells), CCK-8. The following applies: Homo sapiens, MV4-11, 72 h.
Where [3] appears, read: GST-BRD4 (BD1+BD2) vs biotinylated acetyl-histone H4 peptide, AlphaScreen, read-out: BRD4 IC50.
Setting [4] is: read-out: IC50, cytotoxicity against acute myelogenous leukemia cells.
The mark [5] stands for this setting: read-out: MV-4-11 Cytotoxicity IC50.
[6] abbreviates: GST-BRD4 (BD1+BD2) / biotinylated acetyl-histone H4 (Lys5,8,12,16) peptide, read-out: IC50, BRD4 binding inhibition.

With `Cc1nnc2c(NCCCCNC(=O)CC(C)C)nc3cc(OCc4ccc(-c5nnn(C)n5)cc4)ccc3n12` [Example 349, 3-methyl-N-(4-{1-methyl-7-[4-(2-methyl-2H-tetrazolo-5-yl)-benzyloxy]-[1,2,4]triazolo[4,3-a]quinoxaline-4-ylamino}-butyl)-butyramide], the IC50 in assay [1] (setting [3]) was 55 nM; in assay [2] (setting [4]), at most 200 nM; in assay [2] (setting [5]) it was 160 nM.

In the case of `CCC(C)CC(=O)NCCCCNc1nc2cc(OC)ccc2n2c(C)nnc12` (stereo not drawn) [Example 289, 3-methyl-pentanoic acid-[4-(7-methoxy-1-methyl-[1,2,4]triazolo[4,3-a]quinoxaline-4-ylamino)-butyl]-amide], the IC50 in assay [1] (setting [6]) is at most 50 nM; in assay [1] (setting [3]), 12 nM; in assay [2] (setting [4]), at most 200 nM; in assay [2] (setting [5]), 26 nM.

With `COc1cc2nc(NCCCCNC(=O)OC(C)C)c3nnc(C(C)C)n3c2cc1OC` [Example 601, [4-(1-isopropyl-7,8-dimethoxy-[1,2,4]triazolo[4,3-a]quinoxaline-4-ylamino)-butyl]-carbamic acid isopropylester], the values for the IC50 in assay [1] (setting [3]) and in assay [2] (setting [5]) were 56 nM and 230 nM, respectively.

`COc1cc2nc(NCCCCNC(=O)CC(C)C)c3nnc(C)n3c2cc1OCCN1CCOCC1` [Example 576, N-{4-[7-methoxy-1-methyl-8-(2-morpholine-4-yl-ethoxy)-[1,2,4]triazolo[4,3-a]quinoxaline-4-ylamino]-butyl}-3-methyl butyramide]: the 50% inhibitory concentration (IC50) is 52 nM in assay [1] (setting [3]), at most 200 nM in assay [2] (setting [4]) and 86 nM in assay [2] (setting [5]).

Regarding `COc1cc2nc(-c3ccc4c(c3)nc(NCCCCNC(=O)CC(C)C)c3nnc(C)n34)[nH]c2cc1OC` [Example 227, N-{4-[7-(5,6-dimethoxy-1H-benzoimidazole-2-yl)-1-methyl-[1,2,4]triazolo[4,3-a]quinoxaline-4-ylamino]-butyl}-3-methyl-butyramide], the half-maximal inhibitory concentration (IC50) in assay [1] (setting [6]) was at most 10 nM; in assay [1] (setting [3]), 1 nM; in assay [2] (setting [4]), at most 200 nM; in assay [2] (setting [5]), 39 nM.

As for `COCCOc1ccc2c(c1)nc(NCCCCNC(=O)Oc1ccccc1)c1nnc(C)n12` [Example 372, {4-[7-(2-methoxy-ethoxy)-1-methyl-[1,2,4]triazolo[4,3-a]quinoxaline-4-ylamino]-butyl}-carbamic acid phenylester], the IC50 in assay [1] (IC50, BRD4 binding inhibition, GST-BRD4 (BD1+BD2) / biotinylated acetyl-histone H4 (Lys5,8,12,16) peptide) was at most 10 nM; in assay [2] (setting [4]), at most 200 nM; in assay [2] (setting [5]) it was 180 nM.

Consider `Cc1nnc2c(NCCCCNC(=O)[C@@H](O)C(C)C)nc3cc(OCCN4CCOCC4)ccc3n12` [Example 435, 2-(S)-hydroxy-N-{4-[7-(2-morpholine-4-yl-ethoxy)-1-methyl-[1,2,4]triazolo[4,3-a]quinoxaline-4-ylamino]-butyl}-3-methyl-butyramide], for which the IC50 was at most 10 nM in assay [1] (setting [6]), 8 nM in assay [1] (setting [3]) and 110 nM in assay [2] (setting [5]).

Turning to `Cc1nnc2c(NCCCCNC(=O)CC(C)C)nc3cc(-n4ccnc4)ccc3n12` [Example 492, N-[4-(7-imidazole-1-yl-1-methyl-[1,2,4]triazolo[4,3-a]quinoxaline-4-ylamino)-butyl]-3-methyl-butyramide], the IC50 in assay [1] (setting [6]) is at most 50 nM; in assay [1] (setting [3]), 13 nM; in assay [2] (setting [4]), at most 200 nM; in assay [2] (setting [5]), 80 nM.

With `COc1ccc2c(c1)nc(NCCCCNC(=O)[C@H](OC)C(C)C)c1nnc(C)n12` [Example 300, 2-(R)-methoxy-N-[4-(7-methoxy-1-methyl-[1,2,4]triazolo[4,3-a]quinoxaline-4-ylamino)-butyl]-3-methyl-butyramide], the results for the IC50 in assay [1] (setting [6]), in assay [1] (setting [3]) and in assay [2] (setting [5]) were at most 50 nM, 15 nM and 310 nM, respectively.

For the compound `COc1cccc2c1nc(NCCCCNC(=O)OC(C)(C)C)c1nnc(C)n12` [Example 117, [4-(6-methoxy-1-methyl-[1,2,4]triazolo[4,3-a]quinoxaline-4-ylamino)-butyl]-carbamic acid-tert-butylester], the half-maximal inhibitory concentration (IC50) came to 64 nM in assay [1] (setting [3]) and 370 nM in assay [2] (setting [5]).

For `COc1ccc2c(c1)nc(NCCCCNC(=O)C(NC(=O)OC(C)(C)C)C(C)C)c1nnc(C)n12` (stereo not drawn) [Example 310, {1-[4-(7-methoxy-1-methyl-[1,2,4]triazolo[4,3-a]quinoxaline-4-ylamino)-butylcarbamoyl]-2-methyl-propyl}-carbamic acid-tert-butylester], the half-maximal inhibitory concentration (IC50) in assay [1] (setting [6]) was at most 50 nM; in assay [1] (setting [3]), 42 nM; in assay [2] (setting [4]), at most 200 nM; in assay [2] (setting [5]) it was 126 nM.

Consider `CCC(F)(F)C(=O)NCCCCNc1nc2cc(OCCOC)ccc2n2c(C)nnc12` [Example 391, 2,2-difluoro-N-{4-[7-(2-methoxy-ethoxy)-1-methyl-[1,2,4]triazolo[4,3-a]quinoxaline-4-ylamino]-butyl}-butyramide], for which the IC50 in assay [1] (setting [6]) is at most 10 nM; in assay [1] (setting [3]), 5 nM; in assay [2] (setting [4]), at most 200 nM; in assay [2] (setting [5]), 200 nM.

With `COc1ccc2c(c1)nc(NCCCCNC(=O)c1ccccc1F)c1nnc(C)n12` [Example 328, 2-fluoro-N-[4-(7-methoxy-1-methyl-[1,2,4]triazolo[4,3-a]quinoxaline-4-ylamino)-butyl]-benzramide], the half-inhibitory concentration (IC50) is at most 50 nM in assay [1] (setting [6]), 43 nM in assay [1] (setting [3]), at most 200 nM in assay [2] (setting [4]) and 190 nM in assay [2] (setting [5]).

In the case of `CCCNc1cc2c(cc1OC)nc(NCCCCNC(=O)CC(C)C)c1nnc(C)n12` [Example 559, N-[4-(7-methoxy-1-methyl-8-propylamino-[1,2,4]triazolo[4,3-a]quinoxaline-4-ylamino)-butyl]-3-methyl-butyramide], the 50% inhibitory concentration (IC50) in assay [1] (setting [6]) was at most 10 nM; in assay [1] (setting [3]), 7 nM; in assay [2] (setting [4]) it was at most 200 nM; in assay [2] (setting [5]), 141 nM.

With `COCCOc1ccc2c(c1)nc(NCCCCNC(=O)CC(C)C)c1nnc(C)n12` [Example 365, N-{4-[7-(2-methoxy-ethoxy)-1-methyl-[1,2,4]triazolo[4,3-a]quinoxaline-4-ylamino]-butyl}-3-methyl-butyramide], the IC50 in assay [1] (setting [6]) was at most 50 nM; in assay [1] (setting [3]), 13 nM; in assay [2] (setting [4]) it was at most 200 nM; in assay [2] (setting [5]), 60 nM.

With `COCCOc1ccc2c(c1)nc(NCCCCNC(=O)C=C(C)C)c1nnc(C)n12` [Example 378, 3-methyl-butene-2-oic acid-{4-[7-(2-methoxy-ethoxy)-1-methyl-[1,2,4]triazolo[4,3-a]quinoxaline-4-ylamino]-butyl}-amide], the IC50 in assay [1] (setting [6]) was at most 50 nM; in assay [1] (setting [3]), 14 nM; in assay [2] (setting [5]), 290 nM.

Consider `Cc1nnc2c(NCCCCNC(=O)c3ccccc3Cl)nc3ccc(OC(F)(F)F)cc3n12` [Example 268, 2-chloro-N-[4-(1-methyl-8-trifluoromethoxy-[1,2,4]triazolo[4,3-a]quinoxaline-4-ylamino)-butyl]-benzamide], for which the concentration for half-maximal inhibition (IC50) in assay [1] (setting [6]) is at most 50 nM; in assay [1] (setting [3]), 35 nM; in assay [2] (setting [5]) it was 500 nM.

For `Cc1nnc2c(NCCCCNC(=O)NC3CCCCC3)nc3cc(-c4nc5ccccc5n4C)ccc3n12` [Example 239, 1-cyclohexyl-3-{4-[1-methyl-7-(1-methyl-1H-benzoimidazole-2-yl)-[1,2,4]triazolo[4,3-a]quinoxaline-4-ylamino]-butyl}-urea], the IC50 in assay [1] (setting [6]) was at most 50 nM; in assay [1] (setting [3]) it was 18 nM; in assay [2] (setting [5]), 660 nM.

For the compound `COc1cc2nc(NCCCCNC(=O)CCC(C)C)c3nnc(C)n3c2cc1OC` [Example 79, 4-methyl-pentanoic acid [4-(7,8-dimethoxy-1-methyl-[1,2,4]triazolo[4,3-a]quinoxaline-4-ylamino)-butyl]-amide], the half-inhibitory concentration (IC50) is at most 10 nM in assay [1] (setting [6]), 5 nM in assay [1] (setting [3]), at most 200 nM in assay [2] (setting [4]) and 70 nM in assay [2] (setting [5]).

As to `CCC(C)C(=O)NCCCCNc1nc2cc(OCCOC)ccc2n2c(C)nnc12` (stereo not drawn) [Example 380, N-{4-[7-(2-methoxy-ethoxy)-1-methyl-[1,2,4]triazolo[4,3-a]quinoxaline-4-ylamino]-butyl}-2-methyl-butyramide], the IC50 is at most 50 nM in assay [1] (setting [6]), 13 nM in assay [1] (setting [3]) and 610 nM in assay [2] (setting [5]).

With `COc1cc2nc(NCCCCNC(=O)c3ccc(F)cc3)c3nnc(C)n3c2cc1OC` [Example 98, N-[4-(7,8-dimethoxy-1-methyl-[1,2,4]triazolo[4,3-a]quinoxaline-4-ylamino)-butyl]-4-fluoro-benzamide], the IC50 is at most 50 nM in assay [1] (setting [6]), 47 nM in assay [1] (setting [3]) and 830 nM in assay [2] (setting [5]).

For `Cc1nnc2c(NCCCCNC(=O)CC(C)C)nc3cc(OC4CCOCC4)ccc3n12` [Example 344, 3-methyl-N-{4-[1-methyl-7-(tetrahydro-pyran-4-yloxy)-[1,2,4]triazolo[4,3-a]quinoxaline-4-ylamino]-butyl}-butyramide], the IC50 in assay [1] (setting [6]) was at most 10 nM; in assay [1] (setting [3]), 10 nM; in assay [2] (setting [4]), at most 200 nM; in assay [2] (setting [5]) it was 121 nM.

Regarding `Cc1nnc2c(NCCCCNC(=O)CC(C)C)nc3cc(OCCN4CCOCC4)ccc3n12` [Example 432, 3-methyl-N-{4-[1-methyl-7-(2-morpholine-4-yl-ethoxy)-[1,2,4]triazolo[4,3-a]quinoxaline-4-ylamino]-butyl}-butyramide], the concentration for half-maximal inhibition (IC50) in assay [1] (setting [6]) was at most 50 nM; in assay [1] (setting [3]) it was 50 nM; in assay [2] (setting [4]) it was at most 200 nM; in assay [2] (setting [5]) it was 100 nM.

A word on the IC50: it is the midpoint of a concentration-inhibition curve.
